Results taken from PMC12603070, “A high-throughput screening approach to discover potential colorectal cancer chemotherapeutics: repurposing drugs to identify novel disruptors of 14-3-3 proteins” (Cell Death & Disease, 2025).
Where two headings read alike, the source gives them in different places.

Legend:
Caco-2 cells = format: cell-based; settings: for Percentage of cell death % 24h CACO-2: 20 µM; for Percentage of cell death % 48h, Caco-2: 20 μM
Description: (§1) A high-content imaging system (PerkinElmer; Operetta CLS), was used to quantify cell death and apoptosis by calculating the number of propidium iodide-positive cells relative to Hoechst-positive cells, and the number of Annexin V-positive cells relative to Hoechst-positive cells, respectively.

[1] = target: T1, 14-3-3ζ:BAD-112-136F interactions (Homo sapiens, UniProt P63104); experiment: BRET sensor screen for disruption of 14-3-3ζ-Rluc8:BAD-112-136F-mCitrine in living NIH-3T3 cells; format: cell-based, murine; parameters: inhibition: dose or concentration left out as unconfirmed; BRET reduction on NIH-3T3: unit not given here; settings: for inhibition / inhibition at 20 µM: read-out: BRET reduction on NIH-3T3
T1 construct: expressed in transfected cells; host or cells: NIH-3T3 fibroblasts, bi-directional pBI-CMV1 plasmid
T1 sequence (P63104 1-245): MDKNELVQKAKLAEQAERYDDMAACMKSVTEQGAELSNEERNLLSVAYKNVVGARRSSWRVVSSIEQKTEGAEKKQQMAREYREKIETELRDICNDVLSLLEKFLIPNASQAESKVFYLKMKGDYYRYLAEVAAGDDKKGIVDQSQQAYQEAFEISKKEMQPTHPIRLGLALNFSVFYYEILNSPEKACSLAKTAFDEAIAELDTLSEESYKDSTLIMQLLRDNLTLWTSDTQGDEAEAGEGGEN
In short: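 NIH-3T3 cells were transfected with the BRET sensor two days beforehand, then replated on poly-L-ornithine-coated plates and grown 24 h at 37 °C. Medium was then replaced with Krebs buffer (pH 7.4). Z′-score was calculated to judge HTS robustness.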

NIH-3T3 cells = experiment: Hoechst/propidium iodide cell death assay in NIH-3T3; format: cell-based; settings: for cytotoxicity at 20 µM: Mus musculus, NIH3T3, 24 h, read-out: Percentage of cell death % 24h NIH3t3
Description: as §1

HT-29 cells = experiment: Hoechst/propidium iodide cell death assay in HT-29; format: cell-based, human; settings: for %Cell death HT-29: time not given; for cytotoxicity at 20 µM: Homo sapiens
Description: as §1

[2] = NIH-3T3 cells, hits from the primary screen
[3] = NIH-3T3 expressing BRET sensor, 20 µM, 3 h
[4] = NIH3T3, 3 h, NIH-3T3 cells, hits from the primary screen
[5] = NIH3T3, 3 h, NIH-3T3 expressing BRET sensor, 20 µM, 3 h
[6] = HT-29, 24 h, 20 µM, 24 h, read-out: Percentage of cell death % 24h HT-29
[7] = HT-29, 48 h, HT-29, 48h, 20 μM, read-out: Percentage of cell death % 48h, HT-29
[8] = HT-29, 24 h, read-out: Percentage of cell death % 24h HT-29
[9] = HT-29, 48 h, read-out: Percentage of cell death % 48h, HT-29

SMILES	BRET reduction on NIH-3T3 [1, 2]	Percentage of cell death % 48h, NIH3T3 (NIH-3T3 cells)	%Cell death HT-29 (HT-29 cells; HT-29)	Percentage of cell death % 24h CACO-2 (Caco-2 cells)	Percentage of cell death % 48h, Caco-2 (Caco-2 cells)	inhibition [1, 4]	inhibition at 20 µM [1, 5]	cytotoxicity at 20 µM (NIH-3T3 cells; 20 µM, 24 h)	cytotoxicity at 20 µM (HT-29 cells; [6])	cytotoxicity at 20 µM (HT-29 cells; [7])	also measured
COC(=O)[C@]12CCC(C)(C)C[C@H]1[C@H]1C(=O)C=C3[C@@]4(C)C=C(C#N)C(=O)C(C)(C)[C@@H]4CC[C@@]3(C)[C@]1(C)CC2 [Bardoxolone methyl]	39.4225	72.1638%	67.5%								%Cell death Caco-2 (Caco-2 cells): 19.2%; BRET reduction on NIH-3T3 [1, 3]: 39.4225; Percentage of cell death % 24h NIH3t3 (NIH-3T3 cells; 20 µM, 24 h): 87.0027%; Percentage of cell death % 24h HT-29 (HT-29 cells; 20 µM, 24 h): 43.1592%; Percentage of cell death % 48h, HT-29 (HT-29 cells; HT-29, 48h, 20 μM): 67.5309%
COc1ccc2c(O[C@@H]3C[C@H]4C(=O)N[C@]5(C(=O)NS(=O)(=O)C6CC6)C[C@H]5/C=C\CCCCN(C)C(=O)[C@@H]4C3)cc(-c3nc(C(C)C)cs3)nc2c1C [Simeprevir]		93.5636%	70.9%	3.948%	5.542%	42.6%	42.6%	19.3%	38.8%	70.9%	%Cell death Caco-2 (Caco-2 cells; time not given, text says 48 h): 5.5%
CCCCCCCCCCCC1=C(O)C(=O)C=C(O)C1=O [Embelin]		37.4899%	51.8%			37%	37%	69.5%	19%	51.8%	%Cell death Caco-2 (Caco-2 cells): 1.7%
Cc1ccc(C(=O)N(CCCN)[C@@H](c2nc3cc(Cl)ccc3c(=O)n2Cc2ccccc2)C(C)C)cc1 [Ispinesib (SB-715992), Ispinesib]	44.0919	78.7121%		86.1725%	89.1796%						inhibition at 20 µM ([1]; NIH3T3, NIH-3T3 expressing BRET sensor, 20 µM, 3 h): 44.1%; cytotoxicity at 20 µM (NIH-3T3 cells): 87.5%; cytotoxicity at 20 µM (HT-29 cells; [8]): 50.8%; cytotoxicity at 20 µM (HT-29 cells; [9]): 86.7%
Cl.Cl.Fc1ccc(C(c2ccc(F)cc2)N2CCN(C/C=C/c3ccccc3)CC2)cc1 [Flunarizine 2HCl]	36.4286	0.5715%		3.891%	3.726%						BRET reduction on NIH-3T3 [1, 3]: 36.4286; Percentage of cell death % 24h NIH3t3 (NIH-3T3 cells; 20 µM, 24 h): 0.377%; Percentage of cell death % 24h HT-29 (HT-29 cells; 20 µM, 24 h): 0.7908%; Percentage of cell death % 48h, HT-29 (HT-29 cells; HT-29, 48h, 20 μM): 1.34%
CCCCCCCCCCCC[N+](C)(C)CCOc1ccccc1 [Domiphen Bromide]		69.1517%		24.2566%	80.35%	49%	49%	81.2%	15%	57.1%	
C=CCc1ccc(O)c(-c2ccc(O)c(CC=C)c2)c1 [Honokiol]		11.7537%		22.4688%	15.5538%	34.2%	34.2%	27.4%	8.61%	11.1%	
CN(C(=O)CN(CCO)CC(=O)N(C)C(C)(C)Cc1ccccc1)C(C)(C)Cc1ccccc1 [Oxethazaine]		9.9556%	53.1%			28.9%	28.9%	28.2%	3.21%	53.1%	%Cell death Caco-2 (Caco-2 cells): 13.9%
CCc1cc(/C(C)=N/OCc2ccc(C3CCCCC3)c(C(F)(F)F)c2)ccc1CN1CC(C(=O)O)C1 [BAF312 (Siponimod), Siponimod]		0.7911%		2.6196%	2.567%	28.7%	28.7%	0.738%	0.683%	1.58%	
CC(C)(C)c1cc(C(C)(C)C)c(NC(=O)c2c[nH]c3ccccc3c2=O)cc1O [Ivacaftor (VX-770), Ivacaftor]		12.0089%		14.0443%	14.6425%	39%	39%	7.87%	9.35%	60.7%	
CO/N=C1\C[C@]2(C[C@@H]3C[C@@H](C/C=C(\C)C[C@@H](C)/C=C/C=C4\CO[C@@H]5[C@H](O)C(C)=C[C@@H](C(=O)O3)[C@]45O)O2)O[C@H](/C(C)=C/C(C)C)[C@H]1C [Moxidectin]		68.7026%	78.4%			44%	44%	80.7%	8.61%	78.4%	%Cell death Caco-2 (Caco-2 cells): 8.4%
Cc1ccc(C(=O)Nc2ccc(CN3CCN(C)CC3)c(C(F)(F)F)c2)cc1C#Cc1cnc2cccnn12 [Ponatinib (AP24534), Ponatinib]	44.6783	54.2208%		28.4678%	42.5244%						inhibition at 20 µM ([1]; NIH3T3, 3 h): 44.7%; cytotoxicity at 20 µM (NIH-3T3 cells): 73.5%; cytotoxicity at 20 µM (HT-29 cells; [8]): 56.7%; cytotoxicity at 20 µM (HT-29 cells; [9]): 83.2%
CC(C)OC(=O)CCC/C=C\C[C@@H]1[C@@H](CC[C@@H](O)CCc2ccccc2)[C@H](O)C[C@@H]1O [Latanoprost]		0.6511%		2.638%	2.117%	29.5%	29.5%	1.31%	0.702%	1.45%	
C[C@H]1O[C@@H](O[C@H]2CC[C@@]3(C)[C@@H](CC[C@]4(C)[C@@H]3C=C[C@]35OC[C@@]6(CCC(C)(C)C[C@H]63)[C@@H](O)C[C@]54C)[C@]2(C)CO)[C@H](O)[C@@H](O[C@@H]2O[C@H](CO)[C@@H](O)[C@H](O)[C@H]2O)[C@H]1O [Saikosaponin A]	53.7827	80.787%	87.6%								%Cell death Caco-2 (Caco-2 cells): 1.2%; inhibition at 20 µM ([1]; NIH3T3, 3 h): 53.8%; cytotoxicity at 20 µM (NIH-3T3 cells): 80.7%; cytotoxicity at 20 µM (HT-29 cells; [8]): 93.8%; cytotoxicity at 20 µM (HT-29 cells; [9]): 87.6%
CCCCCCCCCCCCCCCC[N+](C)(C)C [Cetrimonium Bromide (CTAB), Cetrimonium Bromide]	35.3912	66.4515%		19.5542%	50.4821%						inhibition at 20 µM ([1]; NIH3T3, 3 h): 35.4%; cytotoxicity at 20 µM (NIH-3T3 cells): 73.5%; cytotoxicity at 20 µM (HT-29 cells; [8]): 11.5%; cytotoxicity at 20 µM (HT-29 cells; [9]): 55.4%
C=C[C@@H]1C[C@]1(NC(=O)[C@@H]1C[C@@H]2CN1C(=O)[C@H](C(C)(C)C)NC(=O)O[C@@H]1C[C@H]1CCCCCc1nc3ccc(OC)cc3nc1O2)C(=O)NS(=O)(=O)C1CC1 [MK-5172]		0.3254%		2.115%	2.005%	33.9%	33.9%	0.421%	0.694%	2.55%	
C[C@@H](NCCCc1cccc(C(F)(F)F)c1)c1cccc2ccccc12 [Cinacalcet]		90.5083%	70.3%	40.5775%	49.3803%	47.7%	47.7%	75.5%	30%	70.3%	%Cell death Caco-2 (Caco-2 cells; time not given, text says 48 h): 49.4%
